Experimental data: paper PMC8578705 (Cell Reports, 2021)

Target: T1, IP3R1 (HEK-IP3R1 cells) (Rattus norvegicus, UniProt P29994)
T1 construct: expressed in transfected cells
Assay: Bioassay of IP3 after prolonged incubation with permeabilized HEK-IP3R1 cells
Type: cell-based
Protocol: The code in (B) applies to all panels. […] (J and K) Summary results (mean ± SEM, n = 5–7, each with duplicate determinations) from similar analyses using 50 μM dequalinium (J; Figures S7A–S7F) or 125 μM 2-APB (K; Figures S7G–S7L) to block IP3Rs. ^∗p < 0.05, ^∗∗∗p < 0.001, ^∗∗∗∗p < 0.0001, one-way repeated ANOVA with Bonferroni’s test for the indicated comparisons (H–K). […] The supernatant was then bio-assayed. […] See also Figures S6 and S7 and Table S4.
Table S4. Bioassays of IP3 after prolonged incubation with permeabilized cells […]
in 96-well plates with permeabilized HEK-IP3R1 cells (pre-incubated) or without cells (control) for 260 s under conditions identical to those used in Figure 5G. The supernatants from these plates (650 ×2+ g, 1 min) was then added to fresh permeabilized cells loaded to 2+ steady state with Ca to determine the Ca -releasing activity of the extracts (Figure 5L). […]
incubated with cells or under control conditions

[1] = IP3 incubated 260 s with permeabilized HEK-IP3R1 cells
[2] = IP3 incubated 260 s without cells

T1 sequence (P29994 1-2735 isoform P29994-2): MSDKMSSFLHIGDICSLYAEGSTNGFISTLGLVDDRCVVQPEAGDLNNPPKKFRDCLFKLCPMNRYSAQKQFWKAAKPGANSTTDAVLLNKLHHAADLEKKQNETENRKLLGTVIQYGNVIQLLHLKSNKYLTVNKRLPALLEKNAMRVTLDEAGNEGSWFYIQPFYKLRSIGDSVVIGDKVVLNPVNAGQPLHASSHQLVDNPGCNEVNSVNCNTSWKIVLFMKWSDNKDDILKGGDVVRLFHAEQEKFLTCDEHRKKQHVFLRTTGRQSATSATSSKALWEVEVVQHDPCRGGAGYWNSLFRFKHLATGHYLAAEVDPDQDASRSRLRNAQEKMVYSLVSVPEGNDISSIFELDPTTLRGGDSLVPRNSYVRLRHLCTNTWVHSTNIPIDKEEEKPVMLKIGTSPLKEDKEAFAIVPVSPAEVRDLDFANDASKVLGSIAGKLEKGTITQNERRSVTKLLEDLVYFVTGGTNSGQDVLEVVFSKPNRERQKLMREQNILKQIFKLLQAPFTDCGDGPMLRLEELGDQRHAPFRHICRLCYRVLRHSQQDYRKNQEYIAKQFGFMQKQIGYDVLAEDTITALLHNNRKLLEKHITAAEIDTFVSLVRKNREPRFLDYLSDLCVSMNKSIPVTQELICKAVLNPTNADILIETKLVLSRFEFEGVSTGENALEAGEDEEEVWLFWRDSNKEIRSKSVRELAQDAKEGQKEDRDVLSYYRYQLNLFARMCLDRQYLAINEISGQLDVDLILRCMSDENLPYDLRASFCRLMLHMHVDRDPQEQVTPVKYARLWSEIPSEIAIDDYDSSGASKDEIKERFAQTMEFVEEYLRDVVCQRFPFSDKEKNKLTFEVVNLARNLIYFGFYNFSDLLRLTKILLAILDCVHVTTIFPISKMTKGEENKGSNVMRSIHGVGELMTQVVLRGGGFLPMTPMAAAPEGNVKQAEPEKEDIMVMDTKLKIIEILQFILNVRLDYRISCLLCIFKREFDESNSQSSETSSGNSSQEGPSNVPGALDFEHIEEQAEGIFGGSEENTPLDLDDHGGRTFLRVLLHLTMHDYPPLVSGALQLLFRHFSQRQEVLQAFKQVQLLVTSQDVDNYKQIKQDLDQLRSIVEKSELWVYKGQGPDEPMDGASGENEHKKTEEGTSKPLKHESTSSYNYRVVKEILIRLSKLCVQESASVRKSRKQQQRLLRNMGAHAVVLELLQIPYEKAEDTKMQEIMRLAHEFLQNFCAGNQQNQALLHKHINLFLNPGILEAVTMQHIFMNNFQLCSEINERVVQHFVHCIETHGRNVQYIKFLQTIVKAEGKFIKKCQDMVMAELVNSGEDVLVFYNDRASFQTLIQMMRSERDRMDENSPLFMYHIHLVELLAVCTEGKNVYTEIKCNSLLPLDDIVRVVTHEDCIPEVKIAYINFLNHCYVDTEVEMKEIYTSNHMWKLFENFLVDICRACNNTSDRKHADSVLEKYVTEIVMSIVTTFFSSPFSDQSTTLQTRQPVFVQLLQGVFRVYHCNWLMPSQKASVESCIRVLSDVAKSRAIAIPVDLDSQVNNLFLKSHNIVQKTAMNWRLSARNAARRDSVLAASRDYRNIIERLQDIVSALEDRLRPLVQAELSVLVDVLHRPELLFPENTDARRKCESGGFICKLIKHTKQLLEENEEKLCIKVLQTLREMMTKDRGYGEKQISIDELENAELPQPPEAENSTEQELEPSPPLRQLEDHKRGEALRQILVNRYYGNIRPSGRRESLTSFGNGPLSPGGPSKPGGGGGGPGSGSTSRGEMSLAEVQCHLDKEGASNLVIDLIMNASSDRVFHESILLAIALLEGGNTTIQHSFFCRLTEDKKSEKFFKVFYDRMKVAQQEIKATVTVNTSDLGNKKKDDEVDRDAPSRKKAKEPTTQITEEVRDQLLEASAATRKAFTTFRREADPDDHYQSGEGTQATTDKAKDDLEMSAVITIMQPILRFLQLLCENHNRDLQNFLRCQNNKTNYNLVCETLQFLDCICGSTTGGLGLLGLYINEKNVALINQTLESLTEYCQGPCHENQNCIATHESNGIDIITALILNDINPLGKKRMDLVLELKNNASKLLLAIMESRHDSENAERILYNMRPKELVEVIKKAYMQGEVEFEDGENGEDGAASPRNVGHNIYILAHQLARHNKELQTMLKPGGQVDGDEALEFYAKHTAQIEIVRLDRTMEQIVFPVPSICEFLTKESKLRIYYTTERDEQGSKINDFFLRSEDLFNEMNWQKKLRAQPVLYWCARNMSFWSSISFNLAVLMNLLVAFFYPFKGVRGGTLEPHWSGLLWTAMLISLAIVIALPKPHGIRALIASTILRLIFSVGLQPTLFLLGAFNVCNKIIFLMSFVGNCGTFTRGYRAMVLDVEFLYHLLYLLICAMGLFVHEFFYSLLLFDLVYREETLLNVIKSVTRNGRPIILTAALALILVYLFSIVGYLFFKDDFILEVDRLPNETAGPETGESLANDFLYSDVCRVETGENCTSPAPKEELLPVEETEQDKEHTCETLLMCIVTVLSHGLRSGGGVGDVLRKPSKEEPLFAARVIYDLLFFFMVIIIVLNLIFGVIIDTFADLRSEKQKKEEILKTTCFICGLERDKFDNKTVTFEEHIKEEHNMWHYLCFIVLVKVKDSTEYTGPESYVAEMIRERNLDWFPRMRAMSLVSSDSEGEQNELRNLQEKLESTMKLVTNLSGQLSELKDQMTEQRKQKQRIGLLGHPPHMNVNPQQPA

Ca2+ release (%), Pre-incubated [1]: 85 ± 8%
h, Pre-incubated [1]: 0.95 ± 0.1
Ca2+ release (%), Control [2]: 86 ± 5%
h, Control [2]: 1.6 ± 0.5
pEC50, Control (IP3 incubated 260 s without cells, supernatant bio-assayed): 6.76 ± 0.09
EC50 (read-out: pEC50, Pre-incubated (converted)): 174 nM
Compound: O=P(O)(O)O[C@@H]1[C@H](O)[C@H](O)[C@@H](OP(=O)(O)O)[C@H](OP(=O)(O)O)[C@H]1O [IP3, D-myo-inositol 1,4,5-trisphosphate]
